The test system of this assay is hedgehog signaling pathway. The experiment in a line: Gli-Luc Reporter Assay for Hh Pathway Inhibition (TMHh-12 cells, pTA-8×Gli-Luc reporter). In kind it is cell-based, Mouse. Summed up:
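Mouse TM3 cells stably carrying an 8×Gli-firefly luciferase reporter, in 2% FBS medium; pathway activated with recombinant mouse Shh (8 μg/mL) or Smo agonist, compounds added at varying concentrations for 48 h. Luminescence read; IC50 at 50% signal reduction. Toxicity checked in TM3 cells (CellTiter-Glo) or constitutive-luciferase TM3-Luc cells.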
(In general: Reporter assays use an easily measured gene product as a stand-in for the process of interest.)

Setting [1] is: Mus musculus, TMHh12, enzymatic and cellular assays for the inhibition of hedgehog signaling pathways, read-out: IC50 Ranges.
Setting [2] is: Mus musculus, TMHh12, Ag1.5 1 nM, read-out: Hedgehog Inhibition IC50 (nM) (Ag1.5 1 nM).
The mark [3] stands for this setting: enzymatic and cellular assays for the inhibition of hedgehog signaling pathways, read-out: IC50 Ranges.

Read-outs that look alike come from different tables or passages of the source.

Usually IC50 stands for the midpoint of a concentration-inhibition curve. Consider `OCC(O)CN1CCC(N2CCc3c(cccc3Nc3ccc(Cl)c(-c4ncc(-c5ccccc5)[nH]4)c3)C2)CC1` (stereo not shown) [Compound 40], for which the IC50 under setting [1] was 0.001 to 1 nM.

On to `Cc1ccc(-c2nc(Nc3cccc4c3CCN(CCS(C)(=O)=O)C4)ccc2Cl)nc1` [Compound 278], for which, under setting [1], the IC50 was 1 to 10 nM.

Take `Cc1ccc(Nc2cccc3c2CCN(CCS(C)(=O)=O)C3)nc1-c1ccccn1` [Compound 311]: the IC50 under setting [1] lay in the range of 10 to 100 nM.

Take `Cc1ccc(Nc2cccc3c2CCN(CC2(C)CC2)C3)cc1-c1nc2ccccc2[nH]1` [Compound 97]: the concentration for half-maximal inhibition (IC50) under setting [1] was in the range of 1 to 10 nM.

With `Cc1ccc(Nc2cccc3c2CCN(CCC(F)(F)F)C3)cc1-c1ccc(C#N)cn1` [Compound 196], the half-inhibitory concentration (IC50) under setting [1] lay within 1 to 10 nM.

On to `Cc1ccc(-c2nc(Nc3cccc4c3CCN(C3CS(=O)(=O)C3)C4)ccc2Cl)nc1` [Compound 317], for which the IC50 under setting [1] lay within 0.001 to 1 nM.

As to `Cc1ccc(Nc2cccc3c2CCN(CCS(C)(=O)=O)C3)cc1-c1ccc(Cl)cn1` [Compound 257], the IC50 under setting [1] was in the range of 0.001 to 1 nM.

As to `NS(=O)(=O)N1CCc2c(cccc2Nc2ccc(Cl)c(-c3ncc(-c4ccccc4)[nH]3)c2)C1` [Compound 13], the half-maximal inhibitory concentration (IC50) is 1.6 nM under setting [2] and 1 to 10 nM under setting [1].

As to `Cc1ccc(Nc2cccc3c2CCN(S(C)(=O)=O)C3)cc1-c1ncc(-c2cncnc2)[nH]1` [Compound 59], the IC50 under setting [1] is 1 to 10 nM.

Regarding `C[S+]([O-])CC(=O)N1CCc2c(cccc2Nc2ccc(Cl)c(-c3ncc(-c4ccccc4)[nH]3)c2)C1` (stereo not shown) [Compound 19], under setting [1], the IC50 was in the range of 0.001 to 1 nM.

As to `CN(C)c1ccc2nc(-c3cc(Nc4cccc5c4CCN(S(C)(=O)=O)C5)ccc3Cl)[nH]c2c1` [Compound 16], the IC50 runs as follows: under setting [2], 3.8 nM; under setting [1], 1 to 10 nM.

For the compound `CCC(CC)N1CCC(N2CCc3c(cccc3Nc3ccc(Cl)c(-c4ncc(-c5ccccc5)[nH]4)c3)C2)CC1` [Compound 31], the IC50 under setting [1] was 0.001 to 1 nM.

Consider `CS(=O)(=O)N1CCc2c(cccc2Nc2ccc(Cl)c(-c3nc(-c4ccccc4)co3)c2)C1` [Compound 96], for which the concentration for half-maximal inhibition (IC50) by setting is: under setting [2], 263 nM; under setting [1], 100 to 1000 nM.

Turning to `Cc1ccc(Nc2cccc3c2CCN(S(C)(=O)=O)C3)cc1C(=O)Nc1ccc(C(F)(F)F)cc1` [Compound 184], the IC50 under setting [2] amounted to 0.7 nM and the IC50 under setting [1] is 0.001 to 1 nM.

For `O=C(NCCO)N1CCc2c(cccc2Nc2ccc(Cl)c(-c3ncc(-c4ccccc4)[nH]3)c2)C1` [Compound 42], the IC50 reads like this: under setting [2], 0.0017 nM; under setting [1], 0.001 to 1 nM.

On to `CC(C)(C)OC(=O)N1CCc2c(cccc2Nc2ccc(Cl)c(-c3ncc(-c4ccccc4)[nH]3)c2)C1` [Compound 45], for which the IC50 runs as follows: under setting [2], 3 nM; under setting [1], 1 to 10 nM.

Take `CCOc1cnc(-c2nc(Nc3cccc4c3CCN(S(=O)(=O)C(C)C)C4)ccc2C)cn1` [Compound 336]: under setting [1], the concentration for half-maximal inhibition (IC50) fell in the range of 10 to 100 nM.

As to `Cc1ccc(Nc2cccc3c2CCN(S(C)(=O)=O)C3)cc1OCc1ccccc1` [Compound 130], the IC50 under setting [1] lay within 1 to 10 nM.

Take `Cc1ccc(Nc2cccc3c2CCN(S(C)(=O)=O)C3)cc1-c1ccc(Cl)cn1` [Compound 173]: the IC50 under setting [1] fell in the range of 0.001 to 1 nM.

As for `Cc1ccc(Nc2cccc3c2CCN(S(C)(=O)=O)C3)cc1-c1ccc(C(F)(F)F)cn1` [Compound 153], the IC50 under setting [3] fell in the range of 0.001 to 1 nM.

For the compound `Cc1ccc(-c2cnc(-c3cc(Nc4cccc5c4CCN(S(C)(=O)=O)C5)ccc3C)[nH]2)cn1` [Compound 91], the IC50 under setting [1] lay in the range of 1 to 10 nM.

On to `Cc1ccc(Nc2cccc3c2CCN(S(C)(=O)=O)C3)cc1-c1cnn(C)c1` [Compound 128], for which the concentration for half-maximal inhibition (IC50) under setting [1] lay in the range of 100 to 1000 nM.

Regarding `Cc1ccc(Nc2cccc3c2CCN(S(C)(=O)=O)C3)cc1-c1ccc(C(F)(F)F)cc1` [Compound 136], the IC50 by setting is: under setting [2], 90 nM; under setting [1], 10 to 100 nM.

Turning to `Cc1ccc(Nc2cccc3c2CCN(CCS(C)(=O)=O)C3)cc1-c1ncccc1F` [Compound 260], the IC50 under setting [1] is 1 to 10 nM.

Take `Cc1ccc(NC(=O)c2cc(Nc3cccc4c3CCN(S(C)(=O)=O)C4)ccc2C)cc1` [Compound 186]: under setting [1], the IC50 lay within 0.001 to 1 nM.

Regarding `Clc1ccc(Nc2cccc3c2CCN(CC2CCOCC2)C3)cc1-c1ncc(-c2ccccc2)[nH]1` [Compound 39], the IC50 under setting [1] was in the range of 0.001 to 1 nM.

Turning to `Cc1ccc(Nc2cccc3c2CCN(S(C)(=O)=O)C3)cc1C(=O)Nc1ccccn1` [Compound 162], the IC50 is 2.1 nM under setting [2] and 1 to 10 nM under setting [1].

As to `Cc1ccc(-c2nc(Nc3cccc4c3CCN(S(C)(=O)=O)C4)ccc2Cl)nc1` [Compound 273], the IC50 under setting [1] fell in the range of 0.001 to 1 nM.

In the case of `FC(F)(F)CN1CCc2c(cccc2Nc2ccc(Cl)c(-c3ncc(-c4ccccc4)[nH]3)c2)C1` [Compound 62], the IC50 under setting [1] fell in the range of 0.001 to 1 nM.

Turning to `COc1ccc(-c2cc(Nc3cccc4c3CCN(S(C)(=O)=O)C4)ccc2C)nn1` [Compound 183], the IC50 under setting [1] is 1 to 10 nM.

Turning to `Cc1ccc(-c2cc(Nc3cccc4c3CCN(S(C)(=O)=O)C4)ccc2C)nc1` [Compound 169], the IC50 under setting [1] was 0.001 to 1 nM.

Consider `Cc1ccc(Nc2cccc3c2CCN(S(C)(=O)=O)C3)cc1-c1nc2cnc(N(C)C)cc2[nH]1` [Compound 103], for which the half-inhibitory concentration (IC50) by setting is: under setting [2], 59 nM; under setting [1], 10 to 100 nM.

Consider `COc1cnnc(-c2cc(Nc3cccc4c3CCN(S(C)(=O)=O)C4)ccc2C)c1` [Compound 270], for which the IC50 under setting [1] fell in the range of 10 to 100 nM.

For the compound `Cc1ccc(-c2cc(Nc3nccc4c3CCN(S(C)(=O)=O)C4)ccc2C)nc1` [Compound 236], the IC50 under setting [1] was 10 to 100 nM.

As to `Cc1ccc(Nc2cccc3c2CCN(S(C)(=O)=O)C3)cc1C(=O)N(CCO)c1ccccc1` [Compound 194], under setting [1], the IC50 fell in the range of 100 to 1000 nM.

`CCS(=O)(=O)N1CCc2c(ncnc2Nc2ccc(C)c(-c3ccc(F)cn3)c2)C1` [Compound 299]: the IC50 under setting [1] lay within 0.001 to 1 nM.

`O=C(CO)N1CCc2c(cccc2Nc2ccc(Cl)c(-c3ncc(-c4ccccc4)[nH]3)c2)C1` [Compound 72]: the 50% inhibitory concentration (IC50) under setting [1] was 0.001 to 1 nM.

For `Cc1ccc(-c2cc(Nc3cccc4c3CCN(S(C)(=O)=O)C4)ccc2C)nn1` [Compound 170], under setting [1], the half-maximal inhibitory concentration (IC50) lay in the range of 1 to 10 nM.

Consider `Cc1ccc(Nc2cccc3c2CCN(S(C)(=O)=O)C3)cc1-c1ccc(C(=O)NCC(O)CO)cc1` (stereo not shown) [Compound 146], for which the IC50 under setting [1] was in the range of 1000 to 10000 nM.

Consider `CC(C)N1CCc2c(cccc2Nc2ccc(Cl)c(-c3ncc(-c4ccccc4)[nH]3)c2)C1` [Compound 46], for which, under setting [1], the half-inhibitory concentration (IC50) was 1 to 10 nM.

Regarding `Cc1ccc(Nc2cccc3c2CCN(CCC(F)(F)F)C3)cc1-c1ccc(F)cn1` [Compound 252], the IC50 under setting [1] fell in the range of 0.001 to 1 nM.

Regarding `CC1(C(=O)N2CCc3c(cccc3Nc3ccc(Cl)c(-c4ncc(-c5ccccc5)[nH]4)c3)C2)CC1` [Compound 73], the IC50 under setting [2] was determined as 0.5 nM and the half-maximal inhibitory concentration (IC50) under setting [1] lay within 0.001 to 1 nM.

Take `O=C([C@@H](O)CO)N1CCc2c(cccc2Nc2ccc(Cl)c(-c3nc(-c4ccccc4)c[nH]3)c2)C1` [Compound 27]: the IC50 under setting [1] lay in the range of 0.001 to 1 nM.

Take `COc1ccc(Nc2cccc3c2CCN(S(C)(=O)=O)C3)cc1-c1ccc(C#N)cc1` [Compound 149]: the IC50 under setting [1] is 100 to 1000 nM.

Regarding `Cc1ccc(Nc2cccc3c2CCN(C[C@H](O)CO)C3)cc1-c1ccc(F)cn1` [Compound 195], the IC50 under setting [1] lay in the range of 1 to 10 nM.

In the case of `CCN1CCC(N2CCc3c(cccc3Nc3ccc(Cl)c(-c4ncc(-c5ccccc5)[nH]4)c3)C2)CC1` [Compound 6], the IC50 under setting [1] fell in the range of 0.001 to 1 nM.

`CS(=O)(=O)N1CCc2c(cccc2Nc2cc(-c3ccc(C#N)cc3)c(Cl)cn2)C1` [Compound 171]: the IC50 under setting [1] fell in the range of 100 to 1000 nM.

As to `Cc1ccc(Nc2cccc3c2CCN(S(C)(=O)=O)C3)cc1-c1ccccn1` [Compound 189], the IC50 under setting [1] fell in the range of 0.001 to 1 nM.

In the case of `CNc1ncc2nc(-c3cc(Nc4cccc5c4CCN(S(C)(=O)=O)C5)ccc3C)sc2n1` [Compound 94], the IC50 under setting [1] fell in the range of 10 to 100 nM.

Regarding `COc1ccc(NC(=O)c2cc(Nc3cccc4c3CCN(S(C)(=O)=O)C4)ccc2C)cc1` [Compound 161], the IC50 under setting [1] is 0.001 to 1 nM.

For the compound `CC1(CN2CCc3c(cccc3Nc3ccc(Cl)c(-c4ncc(-c5ccccc5)[nH]4)c3)C2)CC1` [Compound 95], the IC50 under setting [1] was in the range of 0.001 to 1 nM.

On to `Cc1ccc(Nc2cccc3c2CCN(C2CCS(=O)(=O)CC2)C3)cc1-c1ncc(-c2cccnc2)[nH]1` [Compound 75], for which the 50% inhibitory concentration (IC50) under setting [3] lay in the range of 1 to 10 nM.

For `CC(C)(C(=O)O)N1CCc2c(cccc2Nc2ccc(Cl)c(-c3nc(-c4ccccc4)c[nH]3)c2)C1` [Compound 65], the IC50 under setting [1] fell in the range of 1 to 10 nM.

As for `[O-][S+]1CCC(N2CCc3c(cccc3Nc3ccc(Cl)c(-c4ncc(-c5ccccc5)[nH]4)c3)C2)CC1` (stereo not shown) [Compound 1], the IC50 under setting [3] is 0.001 to 1 nM.

For `Cc1ccc(Nc2cccc3c2CCN(S(C)(=O)=O)C3)cc1-c1ccc(CO)cc1` [Compound 156], the 50% inhibitory concentration (IC50) reads like this: under setting [2], 564 nM; under setting [1], 100 to 1000 nM.

Take `Cc1cnc(-c2cc(Nc3cccc4c3CCN(S(C)(=O)=O)C4)ccc2C)cc1C` [Compound 241]: under setting [1], the half-inhibitory concentration (IC50) lay in the range of 0.001 to 1 nM.

For `Cc1ccc(Nc2cccc3c2CCN([C@H]2CCS(=O)(=O)C2)C3)cc1-c1ncccc1F` [Compound 345], the half-inhibitory concentration (IC50) under setting [3] lay in the range of 0.001 to 1 nM.

`Cc1ccc(Nc2cccc3c2CCN(S(C)(=O)=O)C3)cc1-c1ncc(-c2cnc(N(C)C)nc2)[nH]1` [Compound 107]: the 50% inhibitory concentration (IC50) under setting [1] fell in the range of 1 to 10 nM.

For `Cc1ccc(Nc2cccc3c2CCN(S(C)(=O)=O)C3)cc1-c1ccc(OC(F)(F)F)cc1` [Compound 137], the IC50 under setting [1] was 10 to 100 nM.

As to `OCC(CO)N1CCc2c(cccc2Nc2ccc(Cl)c(-c3ncc(-c4ccccc4)[nH]3)c2)C1` [Compound 34], the IC50 was 1.8 nM under setting [2] and 1 to 10 nM under setting [1].

`Cc1cnc(-c2cc(Nc3cccc4c3CCN(C3CCS(=O)(=O)C3)C4)ccc2C)nc1` (stereo not shown) [Compound 267]: the half-maximal inhibitory concentration (IC50) under setting [1] was in the range of 10 to 100 nM.

Turning to `COc1ccc2[nH]c(-c3cc(Nc4cccc5c4CCN(S(C)(=O)=O)C5)ccc3C)nc2c1` [Compound 15], the IC50 under setting [1] is 0.001 to 1 nM.

As to `Cc1ccc(Nc2cccc3c2CCN(C2(CO)CC2)C3)cc1-c1nc2ccccc2[nH]1` [Compound 89], the IC50 under setting [1] lay within 1 to 10 nM.

Consider `CCOc1ccc(-c2cc(Nc3cccc4c3CCN(CCS(C)(=O)=O)C4)ccc2C)nn1` [Compound 294], for which, under setting [1], the half-maximal inhibitory concentration (IC50) fell in the range of 1 to 10 nM.

For the origin of these results see patent US9216964B2, “Hedgehog pathway modulators” (Novartis AG, priority 2008, dated 2015).
